Calls of active or inactive are those of the source. The rule behind the calls is not given here.
Target: Toxin B (TcdB) glycohydrolase, Clostridioides difficile 630
Experiment: TcdB glycohydrolase inhibitors, dose response, biochemical, cherry-pick, plate reader (AID 720512)
Details: recombinant TcdB glycohydrolase activity; for activity change, negative = inhibition: at 19.5 µM (top of the series)

| Structure (SMILES) | activity change, negative = inhibition | AC50 |
| --- | --- | --- |
| CCOC(=O)[C@H]1[C@H]2COc3ccc(OC)cc3[C@@H]2N2C(=O)CN(Cc3ccc(Cl)cc3)C(=O)[C@@]12C | inactive | – |
| Cc1nn(C2CC(O)C(O)C(CO)O2)c(=O)[nH]c1=O (centres undefined) | inactive | – |
| COc1cc(/C=C/C(=O)OCC(=O)NCc2ccco2)ccc1O | inactive | – |
| CS(=O)(=O)N1CCc2cc(C(=O)Nc3ccc(O)cc3)ccc21 | inactive | – |
| COc1ccc(C(=O)Nc2cc(Cl)ccc2C(=O)O)cc1 | inactive | – |
| Cc1cc(C)nc(/N=C(\N)Nc2ccccc2-c2ccccc2)n1 | inactive | – |
| CCCCCCCN1C(N(C)C)=NC[C@@H]1Cc1ccccc1 | inactive | – |
| Cc1ccc(C)c(CN2C(=O)COc3ccc(C(=O)c4ccccc4C(=O)O)cc32)c1 | inactive | – |
| C=CCNc1n[nH]c(=S)s1 | inactive | – |
| O=c1c2ccccc2nc(/C=C/c2ccc(O)cc2)n1-c1ccccc1O | inactive | – |
| CCOCC(=O)Nc1cc(Cl)ccc1C | inactive | – |
| C[C@H]1CN([C@@H](C)CO)S(=O)(=O)c2ccc(-c3ccncc3)cc2O[C@@H]1CN(C)Cc1ccc(Oc2ccccc2)cc1 | inactive | – |
| COc1ccc(NC(=O)CN(C)C(=O)c2cccc(NS(=O)(=O)c3ccc(Br)cc3)c2)cc1 | inactive | – |
| O=C(O)COn1c(-c2ccc(Cl)cc2)nc2ccc(Cl)cc21 | – | > 39 µM (inactive) |
| COc1c2ccc(C(=O)NCCCCc3ccccc3)cc2nn1C | inactive | – |
| COc1ccc(Cl)cc1NC(=O)CN(C)C(=O)c1cc2c(s1)CCCC2 | inactive | – |
| COc1ccc(/C=C\c2onc(C)c2S(=O)(=O)N2CCC(C(=O)NCCC(C)C)CC2)cc1 | inactive | – |
| O=C(C[C@@H]1CC[C@H]2[C@@H](COC[C@@H](O)CN2C(=O)c2ccccn2)O1)NC1CCC1 | inactive | – |
| Oc1ccc2ccc3[nH]cnc3c2c1 | – | > 39 µM (inactive) |
| Cc1ccc(-c2cc(C(=O)OC3CCOC3=O)c3ccccc3n2)c(C)c1 (centres undefined) | inactive | – |
| Cn1c(-c2ccc(F)c(F)c2)cc2onc(-c3ccccc3)c2c1=O | inactive | – |
| CN1C(=O)c2cc(NC(=O)c3cccc(F)c3)ccc2OC[C@@H]2O[C@@H](CC(=O)NCC3CCCCC3)CC[C@H]21 | inactive | – |

| Structure (SMILES) | activity change, negative = inhibition | AC50 |
| --- | --- | --- |
| Cc1cc(C)c(S(=O)(=O)N2CCCCC2C(=O)O)c(C)c1 (centres undefined) | inactive | – |
| CCCNC(=O)N1CC[C@@H]2[C@@H](CO)N(C)c3ccc(-c4ccc(F)cc4)cc3[C@@H]21 | – | > 42 µM (inactive) |
| Oc1ccc(/C=N/Nc2ncnc3nc[nH]c23)cc1 | inactive | – |
| CNC(=O)C1CCN(S(=O)(=O)c2c(C)noc2/C=C/c2ccc(C)cc2)CC1 | inactive | – |
| O=C(Cc1ccccn1)c1ccncc1 | inactive | – |
| CC(C)OC(=O)C(=O)NNc1ccccc1 | inactive | – |
| CSc1ccc(/C=N/N2CCN(Cc3ccc(Cl)cc3)CC2)cc1 | inactive | – |
| O=C(NC(=S)Nc1ccc(N2CCOCC2)cc1)c1ccccc1 | – | > 39 µM (inactive) |
| CNC(=S)N/N=C/c1c(C(=O)OC)cnn1-c1ccc(F)cc1F | inactive | – |
| COCC(=O)N1CC[C@@H]2[C@H]1c1cc(-c3ccc(F)cc3)ccc1N(C)[C@H]2CO | inactive | – |
| CCOC(=O)c1sc2nc(OCCN3CCOCC3)cc(C)c2c1N | inactive | – |
| Cc1nc2ccccc2nc1OCC(=O)Nc1ccc(F)cc1 | inactive | – |
| O=C(O)c1ccccc1NC(=O)N1C[C@H]2C[C@@H](C1)c1cccc(=O)n1C2 | inactive | – |
| Cc1cc(-c2ccc(NS(=O)(=O)c3ccccc3)c(C)c2)ccc1NS(=O)(=O)c1ccccc1 | inactive | – |
| C=CCNS(=O)(=O)c1nc(C)c(Cl)c(C)c1C#N | inactive | – |
| COCC#Cc1ccc2c(c1)O[C@@H](CN(C)C(=O)CC1CC1)[C@H](C)CN([C@@H](C)CO)S2(=O)=O | inactive | – |
| COc1ccc(C(=O)Nc2ccc3c(c2)C(=O)N(C)[C@@H]2CC[C@H](CC(=O)NCC4CC4)O[C@@H]2CO3)cc1 | inactive | – |
| O=C(Nc1ccccc1F)N(Cc1ccc(F)cc1)Cc1nc2ccccc2c(=O)[nH]1 | inactive | – |
| Cc1c(O)ccc(NC(=O)/C=C/c2ccccc2)c1C | inactive | – |
| O=C(CSc1nc2ccccc2[nH]1)NC1CCCc2ccccc21 (centres undefined) | inactive | – |
| COCc1c(Br)c(C)nc(OCC(=O)N/N=C/c2ccc(C)o2)c1C#N | inactive | – |
| COc1ccc(/C=N/n2c(-c3cc(C)[nH]n3)n[nH]c2=S)cc1OC | inactive | – |

| Structure (SMILES) | activity change, negative = inhibition | AC50 |
| --- | --- | --- |
| N/C(=N\N=C\c1ccc(O)cc1)c1nonc1N | inactive | – |
| COc1ccc(C(=O)Nc2ccccc2C(=O)O)cc1Cl | inactive | – |
| CCn1cc(C(=O)O)c(=O)c2cc(F)c(N3CCN(C(=S)NC(=O)c4ccccc4Br)CC3)cc21 | inactive | – |
| COc1ccc(/C=C2/C(=O)C(C)(C(C)C)CCC2C)cc1 (centres undefined) | inactive | – |
| CN(CCN1CCOCC1)C(=O)CC1C(=O)NCCN1Cc1ccccc1C(F)(F)F (centres undefined) | inactive | – |
| O=C(CSc1cccc2cccnc12)N/N=C/c1ccc(F)cc1 | inactive | – |
| COC1=C/C(=C/c2c(N)n3nc(CC(=O)N4CCOCC4)sc3nc2=O)C=CC1=O | – | > 39 µM (inactive) |
| CC1(C)Cc2nc(Cl)c(C#N)cc2CO1 | inactive | – |
| O=C(C[C@@H]1CC[C@H]2[C@@H](COC[C@@H](O)CN2Cc2ccc(Oc3ccccc3)cc2)O1)Nc1nccs1 | inactive | – |
| Cc1ccc(Cc2c(-c3ccc(C)cc3)nc3ccc(Cl)cn23)cc1 | inactive | – |
| Cn1c(=O)c2c(nc(N3CCOCC3)n2CCSc2ncccn2)n(C)c1=O | inactive | – |
| Cc1[nH]nc(-c2ccc(O)cc2O)c1Oc1ccccc1 | inactive | – |
| c1ccc2[nH]c(-c3ccc4c(c3)OCO4)nc2c1 | inactive | – |
| Cc1ccc(NCCN(C)C)c2c(=O)c3cc(O)ccc3sc12 | inactive | – |
| CCOc1cc(NC(=S)NCC2CCCO2)c(OCC)cc1NC(=O)c1ccc(F)cc1 (centres undefined) | inactive | – |
| COc1ccc(CNC(=O)C2CCN(S(=O)(=O)c3c(C)noc3/C=C/N(C)C)CC2)cc1 | inactive | – |
| O=C(C[C@H]1CC[C@@H]2[C@H](COC[C@@H](O)CN2C(=O)c2ccccn2)O1)NC1CCC1 | inactive | – |
| CCCNC(=O)C[C@H]1CC[C@@H]2[C@@H](COc3ccc(NC(=O)c4ccc(Cl)cc4)cc3C(=O)N2C)O1 | – | > 39 µM (inactive) |
| O=C(/C=C/c1ccccc1)Nc1cccnc1Cl | inactive | – |
| Cc1nn2cc(-c3cccc(Cl)c3)cnc2c1Br | inactive | – |

From PubChem BioAssay AID720512 (Broad Institute, 2013)
